Results published in patent US10456441B2, “Augmenting the immune response by promoting cell death of immune cells” (The University of Vermont and State Agricultural College, priority 2014, dated 2019).
Where a SMILES comes first, the peptide text is derived from it. The star is where a group is joined. Cbz = O=C(OCc1ccccc1)*; CH2F = FC*

Tested on: γδ T cells
Assay: Cell death of γδ T cells by TUNEL assay
Format: cell-based, mice
Settings: 50 μM zVAD
Protocol: Spleens were isolated and disrupted through nylon mesh in RPMI 1640 with 25 mm Hepes (MediaTech, Herndon, Va.) containing 5% (v/v) bovine calf serum (HyClone, Logan, Utah). Erythrocyte lysis of splenocytes was performed using Geys solution. γδ T lymphocytes were enriched by negative selection using a magnetic bead system (Qiagen, Valencia, Calif.) in which splenocytes were incubated with a cocktail of rat monoclonal antibodies to mouse CD4 (clone GK 1.5), CD8 (clone Tib105), class II (clone M5/114/15/2), CD11b (clone M1/70), and B220 (CD45R) (clone RA3-6B2). Cells were washed three times and then rocked with goat anti-rat conjugated magnetic beads at a 10:1 ratio of beads to cell at 4° C. for 45 min. Magnetic depletion was used to remove bead-bound cells. Finally, enriched γδ T cells were resuspended in complete medium (RPMI 1640 (Mediatech, Inc., Herndon, Va., USA), 2.5 mg/ml glucose (Sigma, St. Louis, Mo.), […] folate (Invitrogen, Carlsbad, Calif.), 110 μg/ml pyruvate (Invitrogen), 5×10^−5 M 2-mercaptoethanol (Sigma), 292.3 μg/ml glutamine (Invitrogen), 100 units/ml penicillin-streptomycin (Invitrogen), and 5% bovine calf serum). […] Cells were counted daily and supplied with fresh media containing 50 units/ml IL-2. […]

In the case of `CC(C)[C@H](NC(=O)OCc1ccccc1)C(=O)N[C@@H](C)C(=O)N[C@@H](CC(=O)O)C(=O)CF` [zVAD, N-benzyloxycarbonyl-Val-Ala-Asp-fluoromethyl ketone] (Cbz-Val-Ala-Asp-CH2F), the “cell death of γδ T cells” value was “no increase in cell death”.
